The values below come from patent publication US20250161338A1, “Compounds for Anti-aging Intervention” (AGENCY FOR SCIENCE, TECHNOLOGY AND RESEARCH, priority 2022, published 2025).

Test [1] has as its system prototrophic yeast strain (CEN.PK113-7D). The experiment in a line: Yeast outgrowth in YPD liquid medium (CLS of aged cells). The test is classed as cell-based, Saccharomyces cerevisiae. Particulars: concentration tested 100 μM; OD600 nm after 24 h in YPD at 30° C.; age point day 14. The method, then: (§1) CLS experiments were performed in 96-well plates with 200 μL yeast culture. Cellular inoculums were transferred into 96-well plates containing serially double-diluted concentrations (0 to 10 nM) of rapamycin. Cellular inoculum was transferred into 96-well plates containing serially double-diluted concentrations (0 to 8 mM) of 2,5-anhydro-D-mannitol, D-fructose, D-mannitol, D-maltose, and D-sorbitol in SD medium. Cells were incubated at 30° C., and the growth was measured at different time points. […] Cell survival was quantified at various age time points by three different approaches: (i) PI fluorescence-based method, (ii) outgrowth in YPD liquid medium, and (iii) spotting assay (FIG. 1).
Outgrowth (OD600) of aged cells was measured by the microplate reader. Quantification of cell survival for each age point was determined as relative to Day 1 (considered 100% cell survival). This quantification was performed by using the formula,
[formula] • where OutgrowthDay n refers to the OD600 nm absorbance reading recorded on a specific day, OutgrowthDay 1 refers to the OD600 nm absorbance reading recorded on the first day where 100% cell survival is assumed.
The CLS of the aged cells was further determined by the yeast outgrowth in YPD liquid medium method as described above. […] At chronological age point day 14, 3-μL of culture were transferred to a second 96-well plate containing 200 μL YPD medium.

Test [2] has the same test system. The test can be described thus: Propidium iodide fluorescence-based CLS method in yeast (incl. high-throughput screening).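 For PI intensity: untreated reference is eight DMSO and water control wells per plate.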 It is filed as cell-based, Saccharomyces cerevisiae. The conditions noted are these: concentration tested 100 μM; for Yeast CLS increase: Yes/No call of the screen; for PI intensity: solvent DMSO or water, chronological age point Day 7 (72 h growth = Day 1), lower = more survival. The method, then: Yeast strain was recovered from frozen glycerol stock at 30° C. on YPD agar medium. Yeast was left to propagate in SD medium overnight at 30° C. with shaking at 220 revolutions per minute (rpm). Cells propagated overnight were diluted to a starting optical density at 600 nm (OD600) of approximately 0.2 in fresh SD medium to begin the chronological lifespan (CLS) experiments.
as §1
Yeast cells (40 μL) from different age time points were transferred into a second 96-well plate (different to the 96-well plate in which the CLS analysis as outlined above was performed). Cells were washed and incubated in 100 μL 1×phosphate buffered saline (PBS) with propidium iodide (PI) (5 μg/mL) for 15 minutes in the dark. Positive and negative control samples were included for quantitative analysis. Positive control (cells boiled at 100° C. for 15 minutes) was PI-stained and processed in the same 96-well plate. Samples without PI-stained cells served as the negative control. After incubation, cells were washed and resuspended in 100 μL PBS. The fluorescence reading of the samples (excitation and emission wavelengths at 535 nm and 617 nm, respectively) and OD600 were measured with a microplate reader (BioTek, Winooski, Vermont, United States). The fluorescence intensity of each sample was normalized with OD600. The background fluorescence signal of the unstained negative sample was subtracted from the normalized fluorescence intensity of each sample. The obtained fluorescence intensity of the positive control (boiled dead cells) was considered 0% cell survival. Cell death was validated by allowing the boiled dead cells to grow in medium. Cell survival at different age time points of samples were calculated by normalizing the fluorescence intensity with positive control sample (boiled cells).
High-throughput screening of various chemicals was tested using the same protocol for the propidium iodide fluorescence-based method as described above. The prototrophic yeast strain (CEN.PK113-7D) was grown in the synthetic defined medium with different chemical reagents at their respective single testing concentration (Table 1) in addition to eight replicates of DMSO and water controls in 96-well plates at 30° C.

Structures are written as SMILES. Where a name gives a salt, the structure may show the parent alone.

Consider `CCCCC[C@H](CC(=O)NO)C(=O)N[C@H](C(=O)N1CCC[C@H]1CO)C(C)C` [Actinonin], for which the Outgrowth in test [1] came out at 0.1. Also, in test [2], the “Yeast CLS increase” value is “No” and the PI intensity is recorded as 75,254.2.
The matching figures for `COCCCOc1cc(C[C@@H](C[C@H](N)[C@@H](O)C[C@H](C(=O)NCC(C)(C)C(N)=O)C(C)C)C(C)C)ccc1OC.COCCCOc1cc(C[C@@H](C[C@H](N)[C@@H](O)C[C@H](C(=O)NCC(C)(C)C(N)=O)C(C)C)C(C)C)ccc1OC.O=C(O)/C=C/C(=O)O` [Aliskiren (hemiumarate), reference compound]: 0.1, “No” and 73,607.3.
With `O=C1c2c(O)cccc2[C@@H]([C@@H]2O[C@H](CO)[C@@H](O)[C@H](O)[C@H]2O)c2cc(CO)cc(O)c21` [Aloin B], the Outgrowth in test [1] worked out at 0.1. Moreover, in test [2], the “Yeast CLS increase” value is on record as “No” and the PI intensity was 89,712.0.
Turning to `Nc1c(Br)cc(Br)cc1CN[C@H]1CC[C@H](O)CC1` [Ambroxol (hydrochloride), reference compound], in test [1], the Outgrowth was 0.1. In test [2], the “Yeast CLS increase” value is reported as “No” and the PI intensity is 63,509.0.
As to `NCCCNCCSP(=O)(O)O` [Amifostine, reference compound], in test [1], the Outgrowth amounted to 0.2. Also, in test [2], the “Yeast CLS increase” value is reported as “No” and the PI intensity is 69,013.2.
In test [1], `O=C(O)c1ccc2c(c1)C(=O)c1ccccc1C2=O` [Anthraquinone-2-carboxylic acid] displayed an Outgrowth of 0.1. In addition, in test [2], the “Yeast CLS increase” value is recorded as “No” and the PI intensity was 96,099.2.
The corresponding values for `OCC1=C[C@@H](O)[C@@H]2C=CO[C@@H](O[C@@H]3O[C@H](CO)[C@@H](O)[C@H](O)[C@H]3O)[C@H]12` [Aucubin] are 0.1, “No” and 58,414.0.
For `NC(=O)[C@@H]1CC[C@@H]2CN1C(=O)N2OS(=O)(=O)O` [Avibactam (sodium), reference compound], the Outgrowth in test [1] turned out to be 0.1. In test [2], the “Yeast CLS increase” value is “No” and the PI intensity is listed as 73,562.3.
As to `O=c1c(O[C@@H]2O[C@H](CO)[C@@H](O)[C@H](O)[C@H]2O[C@@H]2O[C@H](CO)[C@@H](O)[C@H](O)[C@H]2O)c(-c2ccc(O)c(O)c2)oc2cc(O)cc(O)c12` [Baimaside], the Outgrowth in test [1] is recorded as 0.2. Besides, in test [2], the “Yeast CLS increase” value is on record as “No” and the PI intensity is given as 61,895.7.
Regarding `CC(=O)OCc1ccccc1` [Benzyl acetate], the Outgrowth in test [1] amounted to 0.1. In test [2], the “Yeast CLS increase” value is reported as “No” and the PI intensity is listed as 74,321.9.
In test [1], `C[C@@H](O)[C@H]1C(=O)N2C(C(=O)[O-])=C(SC3Cn4cnc[n+]4C3)[C@H](C)[C@H]12` (stereo partly drawn) [Biapenem, reference compound] gave an Outgrowth of 0.1. In test [2], the “Yeast CLS increase” value is recorded as “No” and the PI intensity was 71,409.3.
Regarding `OC(CCN1CCCCC1)(c1ccccc1)C1CC2C=CC1C2` (stereo not drawn) [Biperiden (Hydrochloride), reference compound], in test [1], the Outgrowth was 0.2. Besides, in test [2], the “Yeast CLS increase” value is recorded as “No” and the PI intensity is given as 67,178.1.
The compound `O=[N+]([O-])C(Br)(CO)CO` [Bronopol] displayed an Outgrowth in test [1] of 0.1. Moreover, in test [2], the “Yeast CLS increase” value is “No” and the PI intensity is 79,284.9.
The compound `C=C1CC[C@H](O)C/C1=C/C=C1\CCC[C@]2(C)[C@@H]([C@H](C)CCCC(C)(C)O)CC[C@@H]12` [Calcifediol, reference compound] showed an Outgrowth in test [1] of 0.2. In test [2], the “Yeast CLS increase” value is “No” and the PI intensity was 60,747.4.
For `CSCCNc1nc(SCCC(F)(F)F)nc2c1ncn2[C@@H]1O[C@H](COP(=O)([O-])OP(=O)([O-])C(Cl)(Cl)P(=O)([O-])[O-])[C@@H](O)[C@H]1O.[Na+].[Na+].[Na+].[Na+]` [Cangrelor (tetrasodium), reference compound], the Outgrowth in test [1] stood at 0.1. Further, in test [2], the “Yeast CLS increase” value is on record as “No” and the PI intensity is 83,173.6.
Take `C[C@]12CCC(=O)C=C1C=C[C@@H]1[C@@H]2CC[C@@]2(C)[C@H]1CC[C@@]21CCC(=O)O1` [Canrenone, reference compound]: in test [1], the Outgrowth is on record as 0.1. Further, in test [2], the “Yeast CLS increase” value is on record as “No” and the PI intensity is 64,295.2.
The corresponding values for `CC1=C(C(=O)O)N2C(=O)[C@@H](NC(=O)[C@H](N)c3ccc(O)cc3)[C@H]2SC1` [Cefadroxil, reference compound] are 0.1, “No” and 70,326.1.
In test [1], `CO/N=C(\C(=O)N[C@@H]1C(=O)N2C(C(=O)O)=C(Cn3ccc(=N)n3CCO)CS[C@H]12)c1csc(N)n1.O=S(=O)(O)O` [Cefoselis (sulfate), reference compound] yielded an Outgrowth of 0.1. In test [2], the “Yeast CLS increase” value is on record as “No” and the PI intensity is on record as 70,425.6.
With `COCc1c(C(C)C)nc(C(C)C)c(/C=C/[C@@H](O)C[C@@H](O)CC(=O)[O-])c1-c1ccc(F)cc1.[Na+]` [Cerivastatin (sodium), reference compound], the Outgrowth in test [1] was found to be 0.1. Further, in test [2], the “Yeast CLS increase” value is reported as “No” and the PI intensity is 64,250.5.
The matching figures for `O=C(/C=C/c1ccc(O)c(O)c1)O[C@@H]1C[C@](O)(C(=O)O)C[C@@H](O)[C@H]1O` [Chlorogenic acid]: 0.1, “No” and 66,593.5.
In test [1], `CC1(C)C[C@@H]1C(=O)N/C(=C\CCCCSC[C@H](N)C(=O)O)C(=O)O` [Cilastatin, reference compound] had an Outgrowth of 0.1. Besides, in test [2], the “Yeast CLS increase” value is given as “No” and the PI intensity is 55,728.9.
The corresponding values for `O=C(O)C=Cc1ccccc1` [Cinnamic acid] are 0.1, “No” and 60,256.3.
In test [1], `COc1cc2oc(-c3ccc(O)cc3)cc(=O)c2c(O)c1OC` [Cirsimaritin] came in with an Outgrowth of 0.1. In test [2], the “Yeast CLS increase” value is given as “No” and the PI intensity was 85,017.1.
`O=C(/C=C/c1ccc(O)c(O)c1)O[C@H]1[C@H](O)C[C@](O)(C(=O)O)C[C@H]1O` [Cryptochlorogenic acid]: the Outgrowth in test [1] is 0.1. Moreover, in test [2], the “Yeast CLS increase” value is given as “No” and the PI intensity was 65,040.0.
In test [1], `OC[C@H]1O[C@@H](Oc2cc3c(O)cc(O)cc3[o+]c2-c2ccc(O)c(O)c2)[C@H](O)[C@@H](O)[C@H]1O.[Cl-]` [Cyanidin-3-O-galactoside (chloride)] returned an Outgrowth of 0.1. For the same compound, in test [2], the “Yeast CLS increase” value is “No” and the PI intensity is given as 63,761.1.
`OC[C@H]1O[C@@H](O[C@H]2[C@H](O)[C@@H](O)[C@H](O)O[C@@H]2CO)[C@H](O)[C@@H](O)[C@@H]1O` [D-(+)-Cellobiose] registered an Outgrowth in test [1] of 0.1. In test [2], the “Yeast CLS increase” value is “No” and the PI intensity is listed as 69,857.4.
